Where a name gives a salt, the structure may show the parent alone.
How the values were obtained:
Type in all cases: biochemical
AKT2 = biological target: T1, AKT2 (Homo sapiens, UniProt P31751); assay: AKT Kinase Assay (IMAP fluorescent polarisation), AKT2 isoform; conditions: for IC50: activated AKT2, FAM Crosstide substrate; for potency against AKT2 compared with the comparator compound: compared with the non-hydroxylated Compound A, F or L
T1 construct: purchased SignalChem
Method: (§1) Testing of the compounds was performed using an AKT Kinase Assay:
(§2) Activated AKT isoforms 1, 2 and 3 were assayed utilising a 5′ FAM Crosstide (Seq. GRPRTSSFAEG-OH). The extent of kinase phosphorylation was determined by fluorescent polarisation using IMAP progressive binding reagent, which introduces binding beads which allow the reagent to specifically bind to phosphate residues via covalent co-ordination complex bonds.
(§3) iMAP binding solution stops Crosstide/kinase interaction and specifically binds phosphorylated substrates. The degree of phosphorylation is determined by fluorescent polarisation (excitation 485 nm; emission 528 nm) or the reduction in speed of rotation of the excited substrate.
(§4) The following materials were used in the assay: • a) Activated AKT isoforms (SignalChem.) dissolved in Complete Reaction buffer at a predetermined concentration selected so that the assay was carried out in the linear range. • b) AKT substrate peptide: FAM Crosstide (R7110) Molecular Devices, diluted in complete reaction buffer. • c) iMAP Progressive Screening Express Kit (R8127) Molecular Devices • d) Complete Reaction Buffer containing 0.1% BSA, 10 mM Tris-HCl, 10 mM MgCl2, 0.05% NaN3 and 0.01% phosphate free BSA, 1 mM DTT • e) Progressive Binding Solution containing 75% Buffer A, 25% Buffer B and low volume Binding Reagent which contains the binding entity for the assay • f) ATP diluted in complete reaction buffer • g) Black polystyrene 384 well assay plates (Nunc). • h) Biotek Synergy 4 Hybrid Plate reader.
(§5) 5 μl of test compound was dissolved in DMSO (Sigma Aldrich) and serially diluted in complete reaction buffer to give a fourteen point half log dose response and plated into 384 well black plates. The compound was incubated at room temperature with activated AKT isoform (5 μl) at the predetermined concentration, for 45 min.
(§6) 2.5 μl of ATP solution mixed with 2.5 μl of AKT substrate peptide (FAM Crosstide (R7110) Molecular Devices) were dispensed into each well and the plate centrifuged at 1000 rpm for 20 seconds to ensure homogenous mixing of reagents. The reaction mix was incubated in the dark for 1 h at room temperature.
(§7) The kinase reaction was stopped by the addition of Progressive Binding Solution and the mixture allowed to equilibrate for 1 h in the dark, at room temperature.
(§8) The fluorescent polarisation generated in each well was determined using a […] Synergy 4 Hybrid plate reader. In brief, each reaction solution was excited at 485 nm with the emission measured at 528 nm in both the parallel and perpendicular pathway.
(§9) The polarisation value generated in each well was calculated by Gen5 software (Biotek) and the % inhibition of kinase activity compared to vehicle control was calculated via GraphPad Prism. IC50 values for each compound were calculated by non-linear regression analysis using Prism software.
(§10) All plates were internally controlled by two methods. Firstly, by calculating the signal:noise ratio; based on kinase polarisation without inhibitor and polarisation generated by complete reaction buffer in the absence of activated kinase. Secondly by determining IC50 values generated by known inhibitors of the AKT isoforms.
(§11) The data was analysed using GraphPad Prism, with IC50 values generated using non-linear regression of the data set.

AKT3 = biological target: T2, AKT3 (Homo sapiens, UniProt Q9Y243); assay: AKT Kinase Assay (IMAP fluorescent polarisation), AKT3 isoform; conditions: for IC50: activated AKT3, FAM Crosstide substrate; for potency against AKT3 compared with the comparator compound: compared with the non-hydroxylated Compound A, F or L
T2 construct: purchased SignalChem
Method: as §1, §2, §3, §4, §5, §6, §7, §8, §9, §10, §11

AKT1 = biological target: T3, AKT1 (Homo sapiens, UniProt P31749); assay: AKT Kinase Assay (IMAP fluorescent polarisation), AKT1 isoform; conditions: for IC50: activated AKT1, FAM Crosstide substrate; for potency against AKT1 compared with the comparator compound: compared with the non-hydroxylated Compound A, F or L
T3 construct: purchased SignalChem
Method: as §1, §2, §3, §4, §5, §6, §7, §8, §9, §10, §11

T3 sequence (P31749 whole entry, canonical isoform): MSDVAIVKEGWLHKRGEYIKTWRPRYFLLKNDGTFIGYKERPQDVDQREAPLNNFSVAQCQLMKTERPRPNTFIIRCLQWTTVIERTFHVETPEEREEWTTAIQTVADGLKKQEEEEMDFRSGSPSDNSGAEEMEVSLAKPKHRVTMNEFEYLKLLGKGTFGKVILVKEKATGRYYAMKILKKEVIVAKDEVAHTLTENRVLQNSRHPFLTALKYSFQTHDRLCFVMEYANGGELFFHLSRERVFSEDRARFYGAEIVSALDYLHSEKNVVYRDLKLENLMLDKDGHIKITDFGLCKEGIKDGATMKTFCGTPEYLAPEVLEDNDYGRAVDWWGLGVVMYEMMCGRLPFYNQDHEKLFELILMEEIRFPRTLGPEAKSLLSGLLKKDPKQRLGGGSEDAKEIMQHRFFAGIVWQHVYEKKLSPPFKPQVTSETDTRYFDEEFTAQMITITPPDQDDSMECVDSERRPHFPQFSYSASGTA
T1 sequence (P31751 whole entry, canonical isoform): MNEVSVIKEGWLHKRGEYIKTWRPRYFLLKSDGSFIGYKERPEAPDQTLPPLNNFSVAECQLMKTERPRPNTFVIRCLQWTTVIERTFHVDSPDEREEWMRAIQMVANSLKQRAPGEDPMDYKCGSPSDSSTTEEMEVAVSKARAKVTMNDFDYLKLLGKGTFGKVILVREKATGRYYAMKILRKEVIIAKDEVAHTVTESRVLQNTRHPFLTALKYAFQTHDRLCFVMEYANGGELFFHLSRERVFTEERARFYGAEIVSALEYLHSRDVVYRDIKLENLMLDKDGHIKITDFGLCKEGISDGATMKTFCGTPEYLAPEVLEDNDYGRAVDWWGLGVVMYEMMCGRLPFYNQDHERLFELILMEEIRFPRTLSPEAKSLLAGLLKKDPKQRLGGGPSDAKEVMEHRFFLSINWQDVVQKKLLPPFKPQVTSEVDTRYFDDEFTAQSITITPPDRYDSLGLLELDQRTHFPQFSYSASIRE
T2 sequence (Q9Y243 whole entry, canonical isoform): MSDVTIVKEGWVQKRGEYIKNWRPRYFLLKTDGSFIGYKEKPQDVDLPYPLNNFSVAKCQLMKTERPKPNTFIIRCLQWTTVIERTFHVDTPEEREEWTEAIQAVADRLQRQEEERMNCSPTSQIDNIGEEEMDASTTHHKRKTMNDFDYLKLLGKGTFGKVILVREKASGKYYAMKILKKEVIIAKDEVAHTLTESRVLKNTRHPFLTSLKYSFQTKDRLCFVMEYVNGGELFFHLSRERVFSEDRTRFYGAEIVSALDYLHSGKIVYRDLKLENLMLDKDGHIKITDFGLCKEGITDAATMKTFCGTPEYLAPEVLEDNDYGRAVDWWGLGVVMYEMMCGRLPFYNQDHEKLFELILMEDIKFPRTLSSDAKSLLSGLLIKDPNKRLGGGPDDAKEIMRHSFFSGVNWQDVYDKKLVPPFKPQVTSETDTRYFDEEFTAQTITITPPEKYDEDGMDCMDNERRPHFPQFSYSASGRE

SMILES	IC50 (AKT2) [nM]	potency against AKT2 compared with the comparator compound (AKT2)	IC50 (AKT3) [nM]	potency against AKT3 compared with the comparator compound (AKT3)	IC50 (AKT1) [nM]	potency against AKT1 compared with the comparator compound (AKT1)	selectivity for AKT2 over AKT1 and AKT3 compared with compound A (AKT2; compared with compound A)
C[C@]1(O)C[C@](N)(c2ccc(-c3sc4ncn(CC(F)(F)F)c(=O)c4c3-c3ccccc3)cc2)C1 [Compound 8, 6-(4-((1s,3s)-1-Amino-3-hydroxy-3-methylcyclobutyl)phenyl)-5-phenyl-3-(2,2,2-trifluoroethyl)thieno[2,3-d]pyrimidin-4(3H)-one.HCl]	20 to 100	improved potency	1000 to 6000	improved potency	≤ 300	improved potency	–
N[C@]1(c2ccc(-c3sc4ncn(CC(F)(F)F)c(=O)c4c3-c3ccccc3)cc2)C[C@@H](O)C1 [Compound 12, 6-(4-((1r,3r)-1-Amino-3-hydroxycyclobutyl)phenyl)-5-phenyl-3-(2,2,2-trifluoroethyl)thieno[2,3-d]pyrimidin-4(3H)-one.HCl]	20 to 100	improved potency	1000 to 6000	improved potency	300 to 1500	–	–
C[C@]1(O)C[C@@](N)(c2ccc(-c3oc4ncn(CC(F)(F)F)c(=O)c4c3-c3ccccn3)cc2)C1 [Compound 14, 6-(4-((1r,3r)-1-Amino-3-hydroxy-3-methylcyclobutyl)phenyl)-5-(pyridin-2-yl)-3-(2,2,2-trifluoroethyl)furo[2,3-d]pyrimidin-4(3H)-one.HCl]	> 100	–	> 6000	–	> 1500	–	–
Cn1c(-c2ccc([C@]3(N)C[C@](C)(O)C3)cc2)c(-c2cccnc2)c2c(=O)n(CC(F)(F)F)cnc21 [Compound 16, 6-(4-((1r,3r)-1-Amino-3-hydroxy-3-methylcyclobutyl)phenyl)-7-methyl-5-(pyridin-3-yl)-3-(2,2,2-trifluoroethyl)-3H-pyrrolo[2,3-d]pyrimidin-4(7H)-one.TFA]	> 100	–	> 6000	–	> 1500	–	–
Cn1c(-c2ccc([C@]3(N)C[C@](C)(O)C3)cc2)c(-c2ccncc2)c2c(=O)n(CC(F)(F)F)cnc21 [Compound 17, 6-(4-((1r,3r)-1-Amino-3-hydroxy-3-methylcyclobutyl)phenyl)-7-methyl-5-(pyridin-4-yl)-3-(2,2,2-trifluoroethyl)-3H-pyrrolo[2,3-d]pyrimidin-4(7H)-one.HCl]	> 100	–	> 6000	–	> 1500	–	–
Cn1c(-c2ccc([C@]3(N)C[C@@](C)(O)C3)cc2)c(-c2ccccn2)c2c(=O)n(CC(F)(F)F)cnc21 [Compound 18, 6-(4-((1 s,3s)-1-Amino-3-hydroxy-3-methylcyclobutyl)phenyl)-7-methyl-5-(pyridin-2-yl)-3-(2,2,2-trifluoroethyl)-3H-pyrrolo[2,3-d]pyrimidin-4(7H)-one.HCl]	> 100	–	> 6000	–	> 1500	–	–
C[C@]1(O)C[C@](N)(c2ccc(-c3sc4ncn(CC(F)(F)F)c(=O)c4c3-c3ccccn3)cc2)C1 [Compound 19, 6-(4-((1s,3s)-1-Amino-3-hydroxy-3-methylcyclobutyl)phenyl)-5-(pyridin-2-yl)-3-(2,2,2-trifluoroethyl)thieno[2,3-d]pyrimidin-4(3H)-one.HCl]	> 100	–	> 6000	–	> 1500	–	–
C[C@]1(O)C[C@@](N)(c2ccc(-c3sc4ncn(CC(F)(F)F)c(=O)c4c3-c3ccccn3)cc2)C1 [Compound 20, 6-(4-((1r,3r)-1-Amino-3-hydroxy-3-methylcyclobutyl)phenyl)-5-(pyridin-2-yl)-3-(2,2,2-trifluoroethyl)thieno[2,3-d]pyrimidin-4(3H)-one.HCl]	> 100	–	> 6000	–	> 1500	–	–
NC1(c2ccc(-c3sc4ncn(CC(F)(F)F)c(=O)c4c3-c3ccccc3)cc2)CCC1 [Compound F, reference compound]	> 100	–	> 6000	–	300 to 1500	–	–

The remaining lines, values ahead:

IC50 (AKT2) [nM]	potency against AKT2 compared with the comparator compound (AKT2)	IC50 (AKT3) [nM]	potency against AKT3 compared with the comparator compound (AKT3)	IC50 (AKT1) [nM]	potency against AKT1 compared with the comparator compound (AKT1)	selectivity for AKT2 over AKT1 and AKT3 compared with compound A (AKT2; compared with compound A)	SMILES
≤ 20	improved potency	1000 to 6000	improved potency	≤ 300	improved potency	–	N[C@]1(c2ccc(-c3sc4ncn(CC(F)(F)F)c(=O)c4c3-c3ccccc3)cc2)C[C@H](O)C1 [Compound 9, 6-(4-((1s,3s)-1-Amino-3-hydroxycyclobutyl)phenyl)-5-phenyl-3-(2,2,2-trifluoroethyl)thieno[2,3-d]pyrimidin-4(3H)-one.HCl]
≤ 20	improved potency	1000 to 6000	improved potency	300 to 1500	–	–	Cn1c(-c2ccc([C@]3(N)C[C@@](C)(O)C3)cc2)c(-c2ccccc2)c2c(=O)n(CC(F)(F)F)cnc21 [Compound 10, 6-(4-((1s,3s)-1-Amino-3-hydroxy-3-methylcyclobutyl)phenyl)-7-methyl-5-phenyl-3-(2,2,2-trifluoroethyl)-3H-pyrrolo[2,3-d]pyrimidin-4(7H)-one.HCl]
20 to 100	–	> 6000	–	> 1500	–	–	Cn1c(-c2ccc([C@]3(N)C[C@H](O)C3)cc2)c(-c2ccccc2)c2c(=O)n(CC(F)(F)F)cnc21 [Compound 11, 6-(4-((1r,3r)-1-Amino-3-hydroxycyclobutyl)phenyl)-7-methyl-5-phenyl-3-(2,2,2-trifluoroethyl)-3H-pyrrolo[2,3-d]pyrimidin-4(7H)-one.HCl]
≤ 20	improved potency	> 6000	–	> 1500	–	greater selectivity	C[C@]1(O)C[C@@](N)(c2ccc(-c3oc4ncn(CC(F)(F)F)c(=O)c4c3-c3ccncc3)cc2)C1 [Compound 13, 6-(4-((1r,3r)-1-Amino-3-hydroxy-3-methylcyclobutyl)phenyl)-5-(pyridin-4-yl)-3-(2,2,2-trifluoroethyl)furo[2,3-d]pyrimidin-4(3H)-one.TFA]
> 100	–	> 6000	–	> 1500	–	–	Cn1c(-c2ccc([C@]3(N)C[C@](C)(O)C3)cc2)c(-c2ccccn2)c2c(=O)n(CC(F)(F)F)cnc21 [Compound 15, 6-(4-((1r,3r)-1-Amino-3-hydroxy-3-methylcyclobutyl)phenyl)-7-methyl-5-(pyridin-2-yl)-3-(2,2,2-trifluoroethyl)-3H-pyrrolo[2,3-d]pyrimidin-4(7H)-one.TFA]
20 to 100	–	> 6000	–	300 to 1500	–	–	Cn1c(-c2ccc(C3(N)CCC3)cc2)c(-c2ccccc2)c2c(=O)n(CC(F)(F)F)cnc21 [Compound L, reference compound]

Source: patent US9156853B2, “AKT inhibitor compounds for treatment of cancer” (ALMAC DISCOVERY LIMITED, priority 2012, dated 2015)
